Source: the kinase profiling compilation of Christmann-Franck et al. (2016)

How the values were obtained:
Assay in all cases: KINOMEscan competition binding
Conditions in all cases: compound 10.0 µM
[1] = molecular target: MAP4K2 (human) (UniProt Q12851)
[2] = molecular target: MAK (human) (UniProt P20794)
[3] = molecular target: TYK2 JH1 catalytic (human) (UniProt P29597)
[4] = molecular target: MAP3K11 (human) (UniProt Q16584)
[5] = molecular target: DAPK1 (human) (UniProt P53355)
[6] = molecular target: CSNK1A1 (human) (UniProt P48729)
[7] = molecular target: EIF2AK2 (human) (UniProt P19525)
[8] = molecular target: LATS2 (human) (UniProt Q9NRM7)
[9] = molecular target: SRPK2 (human) (UniProt P78362)
[10] = molecular target: CDK16 (human) (UniProt Q00536)
[11] = molecular target: FES (human) (UniProt P07332)
[12] = molecular target: VRK2 (human) (UniProt Q86Y07)
[13] = molecular target: MAP3K13 (human) (UniProt O43283)
[14] = molecular target: PKN3 (M.tuberculosis) (UniProt Q6P5Z2)
[15] = molecular target: CAMK2G (human) (UniProt Q13555)
[16] = molecular target: NEK6 (human) (UniProt Q9HC98)
[17] = molecular target: BRAF (human) (UniProt P15056)
[18] = molecular target: JAK1 JH1 catalytic (human) (UniProt P23458)
[19] = molecular target: TSSK1B (human) (UniProt Q9BXA7)
[20] = molecular target: LRRK2 (human) (UniProt Q5S007)
[21] = test system: MET (human), P08581 [M1250T]
[22] = molecular target: CAMK1D (human) (UniProt Q8IU85)
[23] = molecular target: MYO3A (human) (UniProt Q8NEV4)
[24] = molecular target: CSNK2A1 (human) (UniProt P68400)
[25] = molecular target: CDK2 (human) (UniProt P24941)
[26] = molecular target: CDC42BPA (human) (UniProt Q5VT25)
[27] = molecular target: GRK1 (human) (UniProt Q15835)
[28] = molecular target: PRKCI (human) (UniProt P41743)
[29] = molecular target: PRKCQ (human) (UniProt Q04759)
[30] = molecular target: JAK1 JH2 pseudokinase (human) (UniProt P23458)
[31] = molecular target: RPS6KA5 KD2 (human) (UniProt O75582)
[32] = molecular target: STK17A (human) (UniProt Q9UEE5)
[33] = molecular target: MAP2K2 (human) (UniProt P36507)
[34] = molecular target: CSK (human) (UniProt P41240)
[35] = molecular target: SGK110 (human) (UniProt P0C264)
[36] = molecular target: EPHA8 (human) (UniProt P29322)
[37] = molecular target: ABL1 (human) (UniProt P00519)
Chain of ABL1 (human) (P00519 whole entry, looked up): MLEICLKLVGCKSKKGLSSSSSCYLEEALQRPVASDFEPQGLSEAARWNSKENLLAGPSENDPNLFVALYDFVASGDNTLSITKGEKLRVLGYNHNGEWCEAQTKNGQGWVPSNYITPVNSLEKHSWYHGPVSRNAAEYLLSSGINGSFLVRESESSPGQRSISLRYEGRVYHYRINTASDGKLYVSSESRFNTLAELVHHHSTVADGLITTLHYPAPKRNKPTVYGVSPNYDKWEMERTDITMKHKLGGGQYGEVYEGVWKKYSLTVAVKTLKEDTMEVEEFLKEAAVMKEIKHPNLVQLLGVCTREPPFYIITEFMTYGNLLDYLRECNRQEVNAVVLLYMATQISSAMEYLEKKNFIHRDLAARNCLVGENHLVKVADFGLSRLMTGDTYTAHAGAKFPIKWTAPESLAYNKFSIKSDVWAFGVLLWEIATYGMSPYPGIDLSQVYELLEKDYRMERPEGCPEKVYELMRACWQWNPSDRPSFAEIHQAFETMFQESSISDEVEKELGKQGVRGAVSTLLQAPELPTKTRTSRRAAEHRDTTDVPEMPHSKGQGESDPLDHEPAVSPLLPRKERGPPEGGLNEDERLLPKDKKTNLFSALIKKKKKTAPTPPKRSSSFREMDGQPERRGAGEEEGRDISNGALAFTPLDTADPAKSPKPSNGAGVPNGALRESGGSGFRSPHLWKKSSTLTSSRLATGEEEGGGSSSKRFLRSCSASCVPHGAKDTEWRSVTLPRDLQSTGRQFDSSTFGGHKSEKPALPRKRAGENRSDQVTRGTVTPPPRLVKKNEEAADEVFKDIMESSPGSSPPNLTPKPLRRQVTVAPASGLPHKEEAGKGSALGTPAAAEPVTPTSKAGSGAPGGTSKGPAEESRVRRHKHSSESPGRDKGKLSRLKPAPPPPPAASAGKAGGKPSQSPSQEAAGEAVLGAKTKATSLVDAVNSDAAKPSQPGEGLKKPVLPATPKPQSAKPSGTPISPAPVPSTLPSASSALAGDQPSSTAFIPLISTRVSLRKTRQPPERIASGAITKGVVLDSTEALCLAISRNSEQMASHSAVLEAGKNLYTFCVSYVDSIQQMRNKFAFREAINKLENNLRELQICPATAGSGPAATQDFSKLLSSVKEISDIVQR

Chain of EIF2AK2 (human) (P19525 whole entry, looked up): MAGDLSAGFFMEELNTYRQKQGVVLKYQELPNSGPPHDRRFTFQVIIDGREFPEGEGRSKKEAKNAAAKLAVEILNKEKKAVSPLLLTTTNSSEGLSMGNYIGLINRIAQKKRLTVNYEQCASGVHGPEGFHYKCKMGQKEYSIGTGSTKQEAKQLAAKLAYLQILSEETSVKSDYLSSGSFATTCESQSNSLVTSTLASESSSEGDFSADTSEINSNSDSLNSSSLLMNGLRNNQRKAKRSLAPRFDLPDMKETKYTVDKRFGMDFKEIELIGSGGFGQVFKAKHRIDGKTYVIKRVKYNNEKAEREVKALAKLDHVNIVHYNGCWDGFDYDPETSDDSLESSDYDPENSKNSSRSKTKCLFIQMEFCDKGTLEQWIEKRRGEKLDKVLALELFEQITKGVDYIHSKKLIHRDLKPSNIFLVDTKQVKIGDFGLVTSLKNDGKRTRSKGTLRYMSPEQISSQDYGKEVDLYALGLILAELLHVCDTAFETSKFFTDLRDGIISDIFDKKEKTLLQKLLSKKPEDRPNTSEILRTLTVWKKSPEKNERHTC
Chain of MYO3A (human) (Q8NEV4 whole entry, looked up): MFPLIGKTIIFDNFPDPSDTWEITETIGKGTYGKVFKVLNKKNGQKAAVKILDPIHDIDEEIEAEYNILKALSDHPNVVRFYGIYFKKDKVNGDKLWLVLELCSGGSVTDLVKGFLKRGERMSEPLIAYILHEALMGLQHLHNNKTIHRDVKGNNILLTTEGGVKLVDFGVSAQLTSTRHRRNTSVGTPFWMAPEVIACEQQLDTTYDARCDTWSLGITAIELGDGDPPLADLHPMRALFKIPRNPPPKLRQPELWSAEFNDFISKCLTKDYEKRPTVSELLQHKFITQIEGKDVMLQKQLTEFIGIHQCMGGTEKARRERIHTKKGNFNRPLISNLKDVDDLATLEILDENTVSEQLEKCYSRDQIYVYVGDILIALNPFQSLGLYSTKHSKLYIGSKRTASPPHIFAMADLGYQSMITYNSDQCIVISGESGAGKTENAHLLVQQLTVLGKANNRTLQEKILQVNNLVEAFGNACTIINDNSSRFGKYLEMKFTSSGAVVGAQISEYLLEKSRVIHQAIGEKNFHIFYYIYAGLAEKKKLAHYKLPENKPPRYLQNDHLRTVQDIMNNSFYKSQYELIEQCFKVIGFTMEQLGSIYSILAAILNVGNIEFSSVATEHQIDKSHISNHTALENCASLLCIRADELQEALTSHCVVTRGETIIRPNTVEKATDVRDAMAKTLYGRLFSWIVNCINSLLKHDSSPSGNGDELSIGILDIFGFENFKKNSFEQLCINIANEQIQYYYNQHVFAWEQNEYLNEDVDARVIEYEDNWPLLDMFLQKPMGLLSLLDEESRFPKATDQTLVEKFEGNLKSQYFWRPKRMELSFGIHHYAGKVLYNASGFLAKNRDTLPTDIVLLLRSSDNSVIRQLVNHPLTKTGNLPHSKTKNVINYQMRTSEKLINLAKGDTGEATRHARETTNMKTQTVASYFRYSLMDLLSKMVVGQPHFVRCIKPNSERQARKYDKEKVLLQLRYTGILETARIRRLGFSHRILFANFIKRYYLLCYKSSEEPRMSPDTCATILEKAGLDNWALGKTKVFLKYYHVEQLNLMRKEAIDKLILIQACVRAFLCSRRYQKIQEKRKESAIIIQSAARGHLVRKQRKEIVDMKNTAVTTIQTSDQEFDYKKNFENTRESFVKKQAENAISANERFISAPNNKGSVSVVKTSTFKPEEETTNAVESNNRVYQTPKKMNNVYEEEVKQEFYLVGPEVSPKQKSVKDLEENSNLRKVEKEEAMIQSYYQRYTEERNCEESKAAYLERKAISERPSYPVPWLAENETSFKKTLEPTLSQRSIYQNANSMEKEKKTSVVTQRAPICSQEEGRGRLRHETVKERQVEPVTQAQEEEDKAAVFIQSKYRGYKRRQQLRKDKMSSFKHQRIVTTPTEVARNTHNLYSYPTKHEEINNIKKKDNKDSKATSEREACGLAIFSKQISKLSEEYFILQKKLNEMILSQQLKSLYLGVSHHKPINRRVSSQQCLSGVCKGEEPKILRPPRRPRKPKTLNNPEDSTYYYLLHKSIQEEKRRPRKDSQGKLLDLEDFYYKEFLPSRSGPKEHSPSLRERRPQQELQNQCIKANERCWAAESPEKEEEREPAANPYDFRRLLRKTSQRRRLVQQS
Chain of TSSK1B (human) (Q9BXA7 whole entry, looked up): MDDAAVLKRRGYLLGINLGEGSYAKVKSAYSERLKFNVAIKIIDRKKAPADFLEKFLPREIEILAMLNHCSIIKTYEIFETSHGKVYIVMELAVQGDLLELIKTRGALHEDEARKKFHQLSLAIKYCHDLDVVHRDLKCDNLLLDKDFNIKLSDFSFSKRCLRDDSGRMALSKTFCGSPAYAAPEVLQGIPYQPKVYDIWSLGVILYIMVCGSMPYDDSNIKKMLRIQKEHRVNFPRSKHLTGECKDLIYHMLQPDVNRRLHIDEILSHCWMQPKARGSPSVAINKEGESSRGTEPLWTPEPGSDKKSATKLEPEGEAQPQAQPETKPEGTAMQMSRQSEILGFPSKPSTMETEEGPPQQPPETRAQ
Chain of SGK110 (human) (P0C264 whole entry, looked up): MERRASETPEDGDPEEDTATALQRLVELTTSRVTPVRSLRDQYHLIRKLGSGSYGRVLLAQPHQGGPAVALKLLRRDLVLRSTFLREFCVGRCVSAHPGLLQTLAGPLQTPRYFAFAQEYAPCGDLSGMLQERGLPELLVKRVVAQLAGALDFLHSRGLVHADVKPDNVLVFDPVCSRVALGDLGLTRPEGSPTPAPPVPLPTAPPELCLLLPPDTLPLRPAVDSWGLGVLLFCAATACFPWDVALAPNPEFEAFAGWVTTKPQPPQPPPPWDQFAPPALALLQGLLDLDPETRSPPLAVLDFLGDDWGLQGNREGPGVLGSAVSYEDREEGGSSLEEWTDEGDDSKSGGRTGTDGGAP
Chain of NEK6 (human) (Q9HC98 whole entry, looked up): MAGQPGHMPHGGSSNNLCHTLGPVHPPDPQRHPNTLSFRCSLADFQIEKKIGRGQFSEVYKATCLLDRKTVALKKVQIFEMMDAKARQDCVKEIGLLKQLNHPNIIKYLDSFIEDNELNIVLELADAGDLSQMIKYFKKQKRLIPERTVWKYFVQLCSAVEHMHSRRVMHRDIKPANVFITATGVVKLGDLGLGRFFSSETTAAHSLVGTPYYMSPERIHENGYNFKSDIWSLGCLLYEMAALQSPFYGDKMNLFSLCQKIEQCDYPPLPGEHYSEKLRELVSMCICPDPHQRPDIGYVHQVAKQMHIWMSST
Chain of MAP2K2 (human) (P36507 whole entry, looked up): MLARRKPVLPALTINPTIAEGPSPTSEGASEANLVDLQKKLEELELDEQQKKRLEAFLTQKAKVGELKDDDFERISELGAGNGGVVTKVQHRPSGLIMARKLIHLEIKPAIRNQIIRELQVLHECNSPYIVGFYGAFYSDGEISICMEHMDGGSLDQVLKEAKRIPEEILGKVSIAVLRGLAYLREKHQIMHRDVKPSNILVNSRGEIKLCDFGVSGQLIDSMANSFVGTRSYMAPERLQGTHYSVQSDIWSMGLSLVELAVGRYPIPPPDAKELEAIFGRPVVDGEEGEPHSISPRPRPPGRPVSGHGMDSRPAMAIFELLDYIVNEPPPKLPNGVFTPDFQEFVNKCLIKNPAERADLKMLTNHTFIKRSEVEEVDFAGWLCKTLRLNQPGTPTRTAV

N#C/C(=C1/Nc2ccccc2S1)c1ccnc(NCCc2cccnc2)n1
kinase still bound, per cent of control [1]: 36%
kinase still bound, per cent of control [2]: 100%
kinase still bound, per cent of control [3]: 22%
kinase still bound, per cent of control [4]: 93%
kinase still bound, per cent of control [5]: 32%
kinase still bound, per cent of control [6]: 9.8%
kinase still bound, per cent of control [7]: 72%
kinase still bound, per cent of control [8]: 92%
kinase still bound, per cent of control [9]: 86%
kinase still bound, per cent of control [10]: 44%
kinase still bound, per cent of control [11]: 100%
kinase still bound, per cent of control [12]: 100%
kinase still bound, per cent of control [13]: 100%
kinase still bound, per cent of control [14]: 4.6%
kinase still bound, per cent of control [15]: 78%
kinase still bound, per cent of control [16]: 100%
kinase still bound, per cent of control [17]: 14%
kinase still bound, per cent of control [18]: 100%
kinase still bound, per cent of control [19]: 100%
kinase still bound, per cent of control [20]: 100%
kinase still bound, per cent of control [21]: 100%
kinase still bound, per cent of control [22]: 70%
kinase still bound, per cent of control [23]: 80%
kinase still bound, per cent of control [24]: 0.4%
kinase still bound, per cent of control [25]: 90%
kinase still bound, per cent of control [26]: 83%
kinase still bound, per cent of control [27]: 100%
kinase still bound, per cent of control [28]: 80%
kinase still bound, per cent of control [29]: 100%
kinase still bound, per cent of control [30]: 2.6%
kinase still bound, per cent of control [31]: 72%
kinase still bound, per cent of control [32]: 100%
kinase still bound, per cent of control [33]: 17%
kinase still bound, per cent of control [34]: 88%
kinase still bound, per cent of control [35]: 100%
kinase still bound, per cent of control [36]: 100%

COc1cc(N2CCC(C(N)=O)CC2)ccc1Nc1nc(N)c(Cl)c(Nc2ccccc2S(=O)(=O)C(C)C)n1
kinase still bound, per cent of control [1]: 100%
kinase still bound, per cent of control [3]: 100%
kinase still bound, per cent of control [4]: 100%
kinase still bound, per cent of control [5]: 100%
kinase still bound, per cent of control [7]: 100%
kinase still bound, per cent of control [8]: 100%
kinase still bound, per cent of control [9]: 100%
kinase still bound, per cent of control [10]: 100%
kinase still bound, per cent of control [11]: 2.3%
kinase still bound, per cent of control [15]: 100%
kinase still bound, per cent of control [16]: 100%
kinase still bound, per cent of control [18]: 100%
kinase still bound, per cent of control [19]: 100%
kinase still bound, per cent of control [22]: 100%
kinase still bound, per cent of control [23]: 15%
kinase still bound, per cent of control [24]: 100%
kinase still bound, per cent of control [25]: 100%
kinase still bound, per cent of control [26]: 100%
kinase still bound, per cent of control [37]: 100%
kinase still bound, per cent of control [29]: 100%
kinase still bound, per cent of control [30]: 100%
kinase still bound, per cent of control [31]: 100%
kinase still bound, per cent of control [32]: 100%
kinase still bound, per cent of control [33]: 100%
kinase still bound, per cent of control [34]: 100%
kinase still bound, per cent of control [35]: 100%
kinase still bound, per cent of control [36]: 100%

COc1ccc(N(C(=O)Oc2cc(C(=O)Nc3cccc(C(F)(F)F)c3)ccc2C)c2ccnc(Nc3ccc(N4CCN(C)CC4)cc3)n2)c(OC)c1
kinase still bound, per cent of control [3]: 27%
kinase still bound, per cent of control [4]: 100%
kinase still bound, per cent of control [5]: 100%
kinase still bound, per cent of control [7]: 100%
kinase still bound, per cent of control [8]: 100%
kinase still bound, per cent of control [9]: 100%
kinase still bound, per cent of control [10]: 100%
kinase still bound, per cent of control [11]: 0.85%
kinase still bound, per cent of control [15]: 100%
kinase still bound, per cent of control [16]: 100%
kinase still bound, per cent of control [19]: 100%
kinase still bound, per cent of control [22]: 100%
kinase still bound, per cent of control [23]: 100%
kinase still bound, per cent of control [24]: 100%
kinase still bound, per cent of control [25]: 100%
kinase still bound, per cent of control [26]: 100%
kinase still bound, per cent of control [37]: 2%
kinase still bound, per cent of control [29]: 100%
kinase still bound, per cent of control [30]: 100%
kinase still bound, per cent of control [31]: 100%
kinase still bound, per cent of control [32]: 100%
kinase still bound, per cent of control [33]: 100%
kinase still bound, per cent of control [34]: 1.2%
kinase still bound, per cent of control [36]: 0%

COc1cc(C)c(Sc2cnc(NC(=O)c3ccc(CNC(C)C(C)C)cc3)s2)cc1C(=O)N1CCN(C(C)=O)CC1 (centres undefined)
kinase still bound, per cent of control [1]: 100%
kinase still bound, per cent of control [3]: 100%
kinase still bound, per cent of control [4]: 100%
kinase still bound, per cent of control [5]: 100%
kinase still bound, per cent of control [7]: 100%
kinase still bound, per cent of control [8]: 100%
kinase still bound, per cent of control [9]: 100%
kinase still bound, per cent of control [10]: 100%
kinase still bound, per cent of control [11]: 100%
kinase still bound, per cent of control [15]: 100%
kinase still bound, per cent of control [16]: 34%
kinase still bound, per cent of control [18]: 100%
kinase still bound, per cent of control [19]: 100%
kinase still bound, per cent of control [22]: 100%
kinase still bound, per cent of control [23]: 100%
kinase still bound, per cent of control [24]: 100%
kinase still bound, per cent of control [25]: 100%
kinase still bound, per cent of control [26]: 100%
kinase still bound, per cent of control [37]: 100%
kinase still bound, per cent of control [29]: 100%
kinase still bound, per cent of control [30]: 100%
kinase still bound, per cent of control [31]: 100%
kinase still bound, per cent of control [32]: 100%
kinase still bound, per cent of control [33]: 100%
kinase still bound, per cent of control [34]: 100%
kinase still bound, per cent of control [35]: 100%
kinase still bound, per cent of control [36]: 100%
